Source: PMC4332533 (Neuropharmacology, 2014)

Tests used:
[1] = molecular target: α3Y168Cβ2D190C receptor (Rattus norvegicus, UniProt P04757+P12390, D216C/Y195C); test: Macroscopic evoked currents, two-electrode voltage-clamp, Xenopus laevis oocytes; type: cell-based; settings: ACh alone; Hill fit; naive oocytes
[2] = molecular target: α3Y168Cβ2 receptor (Rattus norvegicus, UniProt P04757+P12390, Y195C); test: as above; type: cell-based; settings: ACh alone; Hill fit
[3] = molecular target: α3β2D190C receptor (Rattus norvegicus, UniProt P04757+P12390, D216C); test: as above; type: cell-based; settings: ACh alone; Hill fit
α3β2D190C receptor, sequence (P04757 26-499): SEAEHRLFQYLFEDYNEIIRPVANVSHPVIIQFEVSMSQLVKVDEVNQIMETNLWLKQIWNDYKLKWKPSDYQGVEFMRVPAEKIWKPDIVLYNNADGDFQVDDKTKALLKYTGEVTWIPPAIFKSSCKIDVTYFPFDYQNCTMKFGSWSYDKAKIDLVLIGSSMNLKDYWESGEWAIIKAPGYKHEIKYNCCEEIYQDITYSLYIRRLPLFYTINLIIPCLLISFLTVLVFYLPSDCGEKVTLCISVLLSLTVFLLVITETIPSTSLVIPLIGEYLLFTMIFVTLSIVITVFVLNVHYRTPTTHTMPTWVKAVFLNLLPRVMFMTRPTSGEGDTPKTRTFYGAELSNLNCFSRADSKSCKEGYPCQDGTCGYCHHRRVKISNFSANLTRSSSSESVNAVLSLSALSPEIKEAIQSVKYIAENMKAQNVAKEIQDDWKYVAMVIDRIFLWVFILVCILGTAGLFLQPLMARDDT
α3β2D190C receptor, sequence (P12390 25-500 D216C): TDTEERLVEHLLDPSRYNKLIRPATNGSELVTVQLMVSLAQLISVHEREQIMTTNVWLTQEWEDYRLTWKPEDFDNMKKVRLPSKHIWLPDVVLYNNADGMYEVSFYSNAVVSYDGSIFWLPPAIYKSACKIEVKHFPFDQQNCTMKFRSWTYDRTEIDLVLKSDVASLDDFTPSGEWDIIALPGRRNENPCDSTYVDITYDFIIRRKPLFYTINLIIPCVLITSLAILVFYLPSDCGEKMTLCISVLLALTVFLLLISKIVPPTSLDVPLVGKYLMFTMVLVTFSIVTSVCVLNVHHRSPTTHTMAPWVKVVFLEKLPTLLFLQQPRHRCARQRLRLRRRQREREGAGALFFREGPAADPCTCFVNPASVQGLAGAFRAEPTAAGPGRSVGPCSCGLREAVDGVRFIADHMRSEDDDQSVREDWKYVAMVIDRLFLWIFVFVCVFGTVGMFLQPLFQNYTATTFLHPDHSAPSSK

[4] = molecular target: α3Y168Fβ2 receptor (Rattus norvegicus, UniProt P04757+P12390, Y195F); test: as above; type: cell-based; settings: ACh alone; Hill fit
α3Y168Fβ2 receptor, sequence (P04757 26-499 Y195F): as the sequence (P04757 26-499) above, with Y170F counted along it
α3Y168Fβ2 receptor, sequence (P12390 25-500): as the sequence (P12390 25-500 D216C) above, with C192D counted along it

[5] = molecular target: α3β2D190Q receptor (Rattus norvegicus, UniProt P04757+P12390, D216Q); test: as above; type: cell-based; settings: ACh alone; Hill fit
α3β2D190Q receptor, sequence (P04757 26-499): as the sequence (P04757 26-499) above
α3β2D190Q receptor, sequence (P12390 25-500 D216Q): as the sequence (P12390 25-500 D216C) above, with C192Q counted along it

[6] = molecular target: α3Y168Fβ2D190Q receptor (Rattus norvegicus, UniProt P04757+P12390, D216Q/Y195F); test: as above; type: cell-based; settings: ACh alone
α3Y168Fβ2D190Q receptor, sequence (P04757 26-499 Y195F): as the sequence (P04757 26-499) above, with Y170F counted along it
α3Y168Fβ2D190Q receptor, sequence (P12390 25-500 D216Q): as the sequence (P12390 25-500 D216C) above, with C192Q counted along it

[7] = molecular target: α3S125Yβ2W149A receptor (Rattus norvegicus, UniProt P04757+P12390, S152Y/W175A); test: as above; type: cell-based; settings: ACh alone
α3S125Yβ2W149A receptor, sequence (P04757 26-499 S152Y): as the sequence (P04757 26-499) above, with S127Y counted along it
α3S125Yβ2W149A receptor, sequence (P12390 25-500 W175A): as the sequence (P12390 25-500 D216C) above, with W151A, C192D counted along it

[8] = molecular target: α3S125Cβ2 receptor (Rattus norvegicus, UniProt P04757+P12390, S152C); test: as above; type: cell-based; settings: ACh alone; Hill fit
α3S125Cβ2 receptor, sequence (P04757 26-499 S152C): as the sequence (P04757 26-499) above, with S127C counted along it
α3S125Cβ2 receptor, sequence (P12390 25-500, stated change not applied): as the sequence (P12390 25-500 D216C) above, with C192D counted along it

[9] = molecular target: α3β2Q39C receptor (Rattus norvegicus, UniProt P04757+P12390, Q65C); test: as above; type: cell-based
α3β2Q39C receptor, sequence (P04757 26-499): as the sequence (P04757 26-499) above
α3β2Q39C receptor, sequence (P12390 25-500 Q65C): as the sequence (P12390 25-500 D216C) above, with Q41C, C192D counted along it

[10] = molecular target: α3Q37Cβ2 receptor (Rattus norvegicus, UniProt P04757+P12390, Q64C); test: as above; type: cell-based; settings: ACh alone; Hill fit
α3Q37Cβ2 receptor, sequence (P04757 26-499 Q64C): as the sequence (P04757 26-499) above, with Q39C counted along it
α3Q37Cβ2 receptor, sequence (P12390 25-500): as the sequence (P12390 25-500 D216C) above, with C192D counted along it

[11] = molecular target: α3β2A127C receptor (Rattus norvegicus, UniProt P04757+P12390, A153C); test: as above; type: cell-based; settings: ACh alone; Hill fit
α3β2A127C receptor, sequence (P04757 26-499): as the sequence (P04757 26-499) above
α3β2A127C receptor, sequence (P12390 25-500 A153C): as the sequence (P12390 25-500 D216C) above, with A129C, C192D counted along it

[12] = molecular target: α3Q37Cβ2A127C receptor (Rattus norvegicus, UniProt P04757+P12390, A153C/Q64C); test: as above; type: cell-based; settings: ACh alone
α3Q37Cβ2A127C receptor, sequence (P04757 26-499 Q64C): as the sequence (P04757 26-499) above, with Q39C counted along it
α3Q37Cβ2A127C receptor, sequence (P12390 25-500 A153C): as the sequence (P12390 25-500 D216C) above, with A129C, C192D counted along it

[13] = molecular target: α3β2A127Y receptor (Rattus norvegicus, UniProt P04757+P12390, A153Y); test: as above; type: cell-based; settings: ACh alone; Hill fit
α3β2A127Y receptor, sequence (P04757 26-499): as the sequence (P04757 26-499) above
α3β2A127Y receptor, sequence (P12390 25-500 A153Y): as the sequence (P12390 25-500 D216C) above, with A129Y, C192D counted along it

[14] = molecular target: α3S125Yβ2A127Y receptor (Rattus norvegicus, UniProt P04757+P12390, A153Y/S152Y); test: as above; type: cell-based; settings: ACh alone
α3S125Yβ2A127Y receptor, sequence (P04757 26-499 S152Y): as the sequence (P04757 26-499) above, with S127Y counted along it
α3S125Yβ2A127Y receptor, sequence (P12390 25-500 A153Y): as the sequence (P12390 25-500 D216C) above, with A129Y, C192D counted along it

[15] = molecular target: α3E173Cβ2 receptor (Rattus norvegicus, UniProt P04757+P12390, E200C); test: as above; type: cell-based; settings: ACh alone; Hill fit
α3E173Cβ2 receptor, sequence (P04757 26-499 E200C): as the sequence (P04757 26-499) above, with E175C counted along it
α3E173Cβ2 receptor, sequence (P12390 25-500): as the sequence (P12390 25-500 D216C) above, with C192D counted along it

[16] = molecular target: α3β2R46C receptor (Rattus norvegicus, UniProt P04757+P12390, R72C); test: as above; type: cell-based; settings: ACh alone; Hill fit
α3β2R46C receptor, sequence (P04757 26-499): as the sequence (P04757 26-499) above
α3β2R46C receptor, sequence (P12390 25-500 R72C): as the sequence (P12390 25-500 D216C) above, with R48C, C192D counted along it

[17] = molecular target: α3E173Cβ2R46C receptor (Rattus norvegicus, UniProt P04757+P12390, E200C/R46C); test: as above; type: cell-based
α3E173Cβ2R46C receptor, sequence (P04757 26-499 E200C): as the sequence (P04757 26-499) above, with E175C counted along it
α3E173Cβ2R46C receptor, sequence (P12390 25-500 R46C): as the sequence (P12390 25-500 D216C) above, with R22C, C192D counted along it

[18] = molecular target: α3E173Aβ2 receptor (Rattus norvegicus, UniProt P04757+P12390, E200A); test: as above; type: cell-based; settings: ACh alone; Hill fit
α3E173Aβ2 receptor, sequence (P04757 26-499 E200A): as the sequence (P04757 26-499) above, with E175A counted along it
α3E173Aβ2 receptor, sequence (P12390 25-500): as the sequence (P12390 25-500 D216C) above, with C192D counted along it

[19] = molecular target: α3β2R46V receptor (Rattus norvegicus, UniProt P04757+P12390, R72V); test: as above; type: cell-based; settings: ACh alone; Hill fit
α3β2R46V receptor, sequence (P04757 26-499): as the sequence (P04757 26-499) above
α3β2R46V receptor, sequence (P12390 25-500 R72V): as the sequence (P12390 25-500 D216C) above, with R48V, C192D counted along it

[20] = molecular target: α3E173Aβ2R46V receptor (Rattus norvegicus, UniProt P04757+P12390, E200A/R46V); test: as above; type: cell-based
α3E173Aβ2R46V receptor, sequence (P04757 26-499 E200A): as the sequence (P04757 26-499) above, with E175A counted along it
α3E173Aβ2R46V receptor, sequence (P12390 25-500 R46V): as the sequence (P12390 25-500 D216C) above, with R22V, C192D counted along it

[21] = molecular target: α3β2W149A receptor; settings: read-out: EC50 (ACh Activation); ACh alone; Hill fit; cited from earlier work
[22] = molecular target: α3S125Cβ2Q39C receptor (Rattus norvegicus, UniProt P04757+P12390, Q65C/S152C); test: Macroscopic evoked currents, two-electrode voltage-clamp, Xenopus laevis oocytes
α3S125Cβ2Q39C receptor, sequence (P04757 26-499 S152C): as the sequence (P04757 26-499) above, with S127C counted along it
α3S125Cβ2Q39C receptor, sequence (P12390 25-500 Q65C): as the sequence (P12390 25-500 D216C) above, with Q41C, C192D counted along it

[23] = thermodynamic cycle Ω from EC50s, ACh alone, location M4

α3Y168Cβ2D190C receptor, sequence (P04757 26-499 Y195C): as the sequence (P04757 26-499) above, with Y170C counted along it
α3Y168Cβ2D190C receptor, sequence (P12390 25-500 D216C): as the sequence (P12390 25-500 D216C) above
α3Y168Cβ2 receptor, sequence (P04757 26-499 Y195C): as the sequence (P04757 26-499) above, with Y170C counted along it
α3Y168Cβ2 receptor, sequence (P12390 25-500): as the sequence (P12390 25-500 D216C) above, with C192D counted along it

CC(=O)OCC[N+](C)(C)C [ACh, acetylcholine]
nH (ACh Activation) [1]: 0.68 ± 0.08 [10]
nH (ACh Activation) [2]: 0.70 ± 0.11 [11]
nH (ACh Activation) [3]: 1.05 ± 0.14 [9]
nH (ACh Activation) [4]: 0.61 ± 0.04 [12]
nH (ACh Activation) [5]: 1.00 ± 0.15 [8]
nH (ACh Activation) ([6]; Hill fit): 0.83 ± 0.09 [11]
Ω(ACh) ([6]; thermodynamic cycle Ω from EC50s, location M1): 18
nH (ACh Activation) ([7]; Hill fit): 0.61 ± 0.10 [6]
Ω(ACh) ([7]; thermodynamic cycle Ω from EC50s, location A2): 0.98
nH (ACh Activation) [8]: 0.64 ± 0.13 [5–7]
nH (ACh Activation) ([9]; ACh alone, Hill fit): 0.78 ± 0.12 [4]
increase in EC50 for ACh activation vs wild type ([9]; from Table 2): 2 fold
nH (ACh Activation) [10]: 1.67 ± 0.44 [4]
nH (ACh Activation) [11]: 2.09 ± 0.34 [4]
nH (ACh Activation) ([12]; Hill fit, naive oocytes): 0.97 ± 0.13 [6]
Ω(ACh) ([12]; thermodynamic cycle Ω from EC50s, location M3): 0.64
nH (ACh Activation) [13]: 1.46 ± 0.20 [5]
nH (ACh Activation) ([14]; Hill fit): 1.06 ± 0.19 [3]
Ω(ACh) ([14]; thermodynamic cycle Ω from EC50s, location A2/M3): 3.2
nH (ACh Activation) [15]: 1.16 ± 0.12 [7]
nH (ACh Activation) [16]: 0.88 ± 0.13 [5]
Iaverage evoked by ACh ([17]; 2 mM ACh, n = 8, one successful expression attempt): 60 ± 10 nA
nH (ACh Activation) ([17]; ACh alone, Hill fit): 0.85 ± 0.10 [5–6]
Ω(ACh) [17, 23]: 2.4
nH (ACh Activation) [18]: 1.77 ± 0.26 [3–6]
nH (ACh Activation) [19]: 0.92 ± 0.14 [5–7]
Iaverage evoked by ACh ([20]; 800 µM ACh, n = 8): 990 ± 130 nA
nH (ACh Activation) ([20]; ACh alone, Hill fit): 0.82 ± 0.06 [7–8]
Ω(ACh) [20, 23]: 15
EC50 [21]: 40 ± 6 µM
nH (ACh Activation) ([22]; ACh alone, Hill fit, naive oocytes): 0.66 ± 0.09 [3–7]
decrease in EC50 for ACh activation vs wild type ([22]; from Table 2): 60 fold
Ω(ACh) ([22]; thermodynamic cycle Ω from EC50s, ACh alone, location A2): 0.16
